Consider nine molecules from US20230104477A1, “USE OF DEHYDROASCORBIC ACID AGAINST NEMATODE INFECTION IN PLANTS” (Universiteit Gent, priority 2019, published 2023).

A short description of assay [1]: Ascorbate measurements in shoots and roots of foliar sprayed rice. Format: in vivo, Oryza sativa cv. Nipponbare. The note with it: 24 h after foliar application; vs control plants. On the procedure: (§1) For foliar application, all chemicals were dissolved in water and 0.02% (v/v) of Tween20 as a surfactant was added prior to spraying on aerial portions of the rice plants. Control plants were sprayed with distilled water containing 0.02% Tween20. Eight plants per treatment were sprayed until run-off with 6.5 mL of solution (at 24 h prior to nematode inoculation, in cases where infected plants were used). The substrate was covered to avoid direct contact with the roots and/or nematodes.
[…] In each assay, 100 mg of crushed material was used per sample, and at least 4 biological replicates were analyzed per treatment. Reduced and oxidized AA were measured according to the method described in Ueda et al., 2013. Absorbance was monitored using a microplate reader (TECAN—Infinite200pro).

Another assay relates to Heterodera schachtii. The experiment in a line: Sugar beet tolerance to beet cyst nematode infection after foliar spray. The format is in vivo. The following applies: three-weeks old sugar beet, foliar spray (AA 20 mM, AO 20 U/mL, DHA 20 mM), 250 H. schachtii per plant, 4 DAS (3 dai); for shoot height: DHA effect not statistically significant. How it is done: (§2) Sugar beet—seeds of cv. Amarok were germinated on moist tissue for 4-5 days at 25° C. For longer experiments seedlings were transplanted to polyvinyl-chloride (PVC) tubes containing fine soil particles. All experiments were conducted in a plant growth room at 25° C., with a 16/8 h day/night regime. The plants were fertilized by supplying Hoagland solution as a source of nutrients 3 times a week.
BNC cysts were obtained from Iran and were maintained on sugar beet (cv. Amarok) plants. Cysts were obtained from stock cultures, by washing the infected soil and letting the cysts to float in water. Full cysts with eggs were hand-picked and allowed to dry before setting up for hatching. For second-stage juveniles (J2) to hatch, cysts were placed in 3 mM of […] and transferred to an incubator/shaker at a temperature of 25.5° C. at 70 rpm for 4 days (Kammerhofer et al., 2015). J2 were re-suspended in water and counted under a stereomicroscope. Around 250-300 J2 nematodes were inoculated per plant. One day before and after inoculation, plants were not supplied with any nutrients or water. To investigate the plant tolerance to BCN infection root length, shoot height, fresh root weight as well as the number of cysts were measured at different time points after spraying and/or inoculation. For all experiments, 8 individual plants were used per treatment.
(§3) Reduced Ascorbic acid (AA, 20 mM), dehydroascorbic acid (DHA, 20 mM), ascorbate oxidase (AO, 20 U/ml), methyl jasmonate (MeJA, 100 μM), aminooxyacetic acid (AoA, 12.5 mM), diethyldithiocarbamic acid (DIECA, 100 μM) and ethephon (100 μM) were purchased from Sigma and dissolved in water (except MeJA that was first dissolved in a drop of ETOH) to attain the indicated concentration.
as §1

Assay [2] deals with root-knot nematode M. graminicola. The experiment in a line: Susceptibility assay on rice plants, foliar spray. Format: in vivo, Meloidogyne graminicola. The following applies: foliar spray 24 h prior to inoculation (AA 20 mM, DHA 20 mM, AO 20 U/ml); 12 dai; vs control. How it is done:
(§4) M. graminicola originally isolated in the Philippines (Batangas) was cultured on susceptible rice plants. Second stage juveniles (J2s) were extracted using a sieve/tray extraction method and inoculation was done as described in Nahar et al., (2011). For susceptibility assays, at least two independent experiments were carried out, each time including eight plants per treatment. Twelve days after inoculation (dai), roots were stained using acid fuchsine (Nahar et al., 2011) to count galls and number of nematodes in the roots.
as §3, §1

Assay [3] has as its system root-knot nematode Meloidogyne graminicola. The experiment in a line: Susceptibility assay on rice plants, soil drench. The format is in vivo. The following applies: soil drench 24 h prior to inoculation (AA 20 mM, DHA 20 mM, AO 20 U/mL); twelve days after inoculation; vs control. How it is done: as §4, §3
For soil application, 6.5 mL of each solution was drenched on the substrate, 24 h prior to nematode inoculation.

For a further assay, the system named is rice seedlings. The assay is described as follows: Evaluation of seedling growth after drenching rice seedlings. Format: in vivo, Oryza sativa cv. Nipponbare. The note with it: 3-days old rice seedlings drenched with 1 mL (AA 20 mM, DHA 20 mM, AO 20 U/ml); 5 days after drenching; vs water control. On the procedure: (§5) Rice—Seeds of wild-type rice Oryza sativa cv. Nipponbare were obtained from USDA (GSOR-100). Seeds were germinated on wet filter paper for 4-5 days at 30° C. and seedlings were then transferred to SAP-substrate (Sand mixed with Absorbent Polymer AquaPerla®, DCM, Belgium) and further grown at 28° C., under a light regime of (day/night) 12/12. Hoagland solution was given as a source of nutrients 3 times a week.
as §3
3-days old rice seedlings were drenched with 1 mL of AA (20 mM), AO (20 U/mL), DHA (20 mM) or water (H2O) as a negative control. Rice root length and dry root weight as well as the number of embryonic crown roots (ECR) were measured 5 days after drenching.

The next assay has as its system M. graminicola. The assay is described as follows: Infection experiment with JA/ET mutant and biosynthesis inhibitors, foliar spray. Format: in vivo, Meloidogyne graminicola. The note with it: inhibitor alone sprayed on wild-type (DIECA 100 μM, AoA 12.5 mM) vs wild-type/control plants; 12 days after inoculation. On the procedure: as §4, §3, §1
The test system of a further assay is root parasitic nematodes. The note with it: root application; cited from earlier work.
The test system of another assay is root defence pathways. The following applies: foliar application; cited from earlier work.
Assay [4] relates to root-knot nematode Meloidogyne graminicola. The assay is described as follows: Root growth in rice after foliar spray, nematode-infected conditions (tolerance). The note with it: 14-days old rice, foliar spray AO 20 U/mL, 250 nematodes per plant, time point not stated. The format is in vivo. How it is done: as §5, §4, §3, §1
A further assay has as its system sugar beet plants. The experiment in a line: Root and shoot growth in uninfected sugar beet plants after foliar spray. The format is in vivo, Beta vulgaris cv. Amarok. The following applies: two-week old sugar beet, seven days later. On the procedure:
as §2, §3, §1

Where [5] appears, read: foliar spray, effect not statistically significant.

As for `O=C1O[C@H]([C@@H](O)CO)C(O)=C1O` [AA, ascorbic acid], in assay [1], the “amount of reduced AA in roots” value is on record as “no changes” and the “amount of reduced AA in shoots” value was “significantly increased”. In the assay on Heterodera schachtii, the root length result was “None of the other treatments (AA or AO) had significant effects”, the root weight entry was “None of the other treatments (AA or AO) had significant effects”, the shoot weight result was “None of the other treatments (AA or AO) had significant effects” and the shoot height result is listed as “None of the other treatments (AA or AO) had significant effects”. Besides, in [2], the number of galls entry was “no significant differences” and the number of nematodes entry is “no significant differences”. In assay [3], the number of galls result is listed as “significantly lower number of galls” and the number of nematodes result is listed as “lower number of nematodes”. Moreover, in the assay with rice seedlings, the “number of embryonic crown roots (ECR)” value was “significantly fewer ECR” and the root length entry was “slightly shorter roots”.
Regarding `NOCC(=O)O` [AoA, aminooxyacetic acid, reference compound], the number of galls result with M. graminicola is given as “significantly higher number of galls”.
For `CC(N)CC(=O)O` (stereo not drawn) [BABA, β-aminobutyric acid], the “rice plant defence, tolerance or resistance against root parasitic nematodes” value (“rice plant defence” below) with root parasitic nematodes was “enhances the rice plant defence system”.
For the molecule `CCN(CC)C(=S)S` [DIECA, diethyldithiocarbamic acid, reference compound], the number of galls entry in the assay with M. graminicola is given as “significantly increased number of galls”.
With `CC/C=C\CC1C(=O)CCC1CC(=O)OC` (stereo not drawn) [MeJA, methyl jasmonate], in the assay with root defence pathways, the “activation of root defence pathways” value was “can activate root defence pathways with varying efficacy”.
For `O=P(O)(O)CCCl` [ethephon], in the assay on root defence pathways, the “activation of root defence pathways” value is “can activate root defence pathways with varying efficacy”.
With `Cc1ncc(C[n+]2csc(CCO)c2C)c(N)n1` [thiamine], the “rice plant defence” value with root parasitic nematodes is on record as “enhances the rice plant defence system”.
With silicon, the “rice plant defence” value in the assay on root parasitic nematodes is recorded as “enhances the rice plant defence system”.

B1: AO: ascorbate oxidase, purchased from Sigma, used at 20 U/ml (protein, UniProt P37064 1-552, looked up)
L-ascorbate oxidase: SQIRHYKWEVEYMFWAPNCNENIVMGINGQFPGPTIRANAGDSVVVELTNKLHTEGVVIHWHGILQRGTPWADGTASISQCAINPGETFFYNFTVDNPGTFFYHGHLGMQRSAGLYGSLIVDPPQGKKEPFHYDGEINLLLSDWWHQSIHKQEVGLSSKPIRWIGEPQTILLNGRGQFDCSIAAKYDSNLEPCKLKGSESCAPYIFHVSPKKTYRIRIASTTALAALNFAIGNHQLLVVEADGNYVQPFYTSDIDIYSGESYSVLITTDQNPSENYWVSVGTRARHPNTPPGLTLLNYLPNSVSKLPTSPPPQTPAWDDFDRSKNFTYRITAAMGSPKPPVKFNRRIFLLNTQNVINGYVKWAINDVSLALPPTPYLGAMKYNLLHAFDQNPPPEVFPEDYDIDTPPTNEKTRIGNGVYQFKIGEVVDVILQNANMMKENLSETHPWHLHGHDFWVLGYGDGKFSAEEESSLNLKNPPLRNTVVIFPYGWTAIRFVADNPGVWAFHCHIEPHLHMGMGVVFAEGVEKVGRIPTKALACGGTAKSLINNPKNP
With B1, the root length entry in [4] is “slightly increased root length”. Moreover, in [1], the “DHA level in roots” value is recorded as “accumulating”; the “total levels of reduced and oxidized ascorbate in shoots” value is given as “slightly decreased”. For the same molecule, in the assay with Heterodera schachtii, the root length entry is recorded as “None of the other treatments (AA or AO) had significant effects”, the root weight entry was “None of the other treatments (AA or AO) had significant effects”, the shoot weight result is “None of the other treatments (AA or AO) had significant effects” and the shoot height result was “None of the other treatments (AA or AO) had significant effects”. In assay [2], the number of galls entry is listed as “significantly lower number of galls” and the number of nematodes entry was “lower number of nematodes”. Further, in [3], the number of galls entry was “no significant difference” and the number of nematodes result is on record as “no significant difference”. The root length entry in the assay with sugar beet plants (foliar spray (DHA 20 mM, AO 20 U/mL), vs water control) was “significantly longer roots”. In the assay on sugar beet plants (setting [5]), the fresh root weight entry was “positively affected” and the shoot length entry is on record as “positively affected”. Moreover, in the assay with rice seedlings, the dry root weight entry is reported as “some positive effects”, the “number of embryonic crown roots (ECR)” value was “some positive effects” and the root length result is “no root length effects”.
